Laboratory results taken from patent US11414384B2, “P300/CBP hat inhibitors” (Constellation Pharmaceuticals, Inc., priority 2018, dated 2022).

Key:
[1] = test system: acetylation of chromatin at H3K18 (catalyzed by p300 and CBP) in HCT-116 cells; assay: H3K18Ac MSD cellular assay; assay type: cell-based; conditions: 2 hr treatment, average of at least 2 replicate titrations
Description: Select compounds were also evaluated in a H3K18Ac MSD cellular assay that measures the ability of compounds to inhibit the acetylation of chromatin at H3K18, a process catalyzed by p300 and CBP. In a typical experiment the p300 HAT inhibitory activity inside cells of the compounds described herein was determined in accordance with the following experimental method. 20 k HCT-116 cells per well are plated in 75 μL RPMI+10% FBS media the night before treatment. Compounds plated in DMSO at 4× final concentration are resuspended in 30 μL RPMI+10% FBS, then 25 μL is combined with corresponding wells containing cells. Treated cells are incubated for 2 hr at 37° C., then lysed in 500 μL final volume and frozen at −80° C. MSD plates (Meso Scale Discovery) are coated overnight at 4° C. with 60 μL 1:500α-total histone antibody (Millipore MAB3422) in PBS. Plates are then blocked with 5% BSA in TBST shaking at RT for 1 hr, washed, and 30 μL lysate added to each well for 2 hr shaking at RT. Plates are washed and 25 μL 1:216α-H3K18ac antibody (CST 9675) in PBS added, then incubated for 1 hr shaking at RT. Plates are washed again, then 25 μL 1:1000 Sulfo-Tag goat a-rabbit antibody (Meso Scale Discovery R32Ab-1) in PBS is added for 1 hr shaking at RT. Plates are washed once more, then 150 μL 1× Read Buffer (MSD #R92TD-3) is added to all wells and read on MSD SECTOR Imager 2400 using the conventional read setup.

[2] = biological target: p300 HAT domain (residues 1287-1666) (Homo sapiens (Human), UniProt Q09472); assay: p300 HAT SPA assay (scintillation proximity assay, acetylation of biotinylated H3(1-21) peptide); assay type: biochemical; conditions: p300 HAT domain; average of at least 2 replicate titrations; read-out: P300 HAT SPA IC50
Summary of the method: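 Scintillation proximity readout of acetylated biotin-H3(1-21) captured on streptavidin plates after 1.5 hr at RT; enzyme was Ni2+/anion-exchange-purified HAT domain in 20 mM Hepes pH 7.5. Inhibitor IC50s calculated from the data.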

p300 HAT domain (residues 1287-1666), sequence (Q09472 1287-1666): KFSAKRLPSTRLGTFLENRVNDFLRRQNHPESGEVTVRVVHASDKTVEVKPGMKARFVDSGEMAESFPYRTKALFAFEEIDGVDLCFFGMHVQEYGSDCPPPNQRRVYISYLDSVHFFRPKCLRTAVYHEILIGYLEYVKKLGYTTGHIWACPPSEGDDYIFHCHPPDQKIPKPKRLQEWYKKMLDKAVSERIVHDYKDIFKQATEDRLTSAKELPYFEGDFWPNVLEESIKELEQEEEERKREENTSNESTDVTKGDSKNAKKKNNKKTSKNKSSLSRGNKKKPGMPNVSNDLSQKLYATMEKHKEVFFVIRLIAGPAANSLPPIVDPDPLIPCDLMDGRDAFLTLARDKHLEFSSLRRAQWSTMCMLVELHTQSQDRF

| SMILES | EC50 [1] | IC50 [2] | EC50 ([1]; Homo sapiens, HCT-116, 2 h) |
| --- | --- | --- | --- |
| CC(Cc1ccc(Cl)cc1)NC(C(=O)c1c[nH]c2ccccc12)c1ccccc1 (single isomer, unassigned) [27 Isomer 1] | – | 636 nM | 681 nM |
| Cc1ccc(CCNC(C(=O)c2c[nH]c3ccccc23)c2ccccc2)cc1 (single isomer, unassigned) [38 Isomer 2] | – | 698 nM | 1690 nM |
| O=C(c1c[nH]c2ccccc12)C(NCCc1ccc(OC(F)(F)F)cc1)c1ccccc1 (single isomer, unassigned) [40 Isomer 2] | – | 1310 nM | 4010 nM |
| Cc1ccc2c(C(=O)C(NCCc3ccc(F)cc3)c3ccccc3)c[nH]c2c1 (single isomer, unassigned) [48 Isomer 2] | – | 3340 nM | 3200 nM |
| CCNc1ccc(CCNC(C(=O)c2c[nH]c3ccccc23)c2ccccc2)cn1 (single isomer, unassigned) [53 Isomer 2] | – | 4290 nM | 3470 nM |
| Cc1ccc2c(C(=O)C(NCCc3ccc(S(N)(=O)=O)cc3)c3ccccc3)c[nH]c2c1 (single isomer, unassigned) [56 Isomer 2] | – | 3100 nM | 1440 nM |
| CCC(CNC(C(=O)c1c[nH]c2ccccc12)c1ccccc1)c1ccc(Cl)cc1 (single isomer, unassigned) [59 Isomer 4] | – | 827 nM | 829 nM |
| Cc1cccc2c(C(=O)C(NC(C)Cc3ccc(Cl)cc3Cl)c3ccccc3)c[nH]c12 (single isomer, unassigned) [68 Isomer 1] | – | 728 nM | 666 nM |
| O=C(c1c[nH]c2cc(-c3ccncc3)ccc12)C(NCCc1ccc(F)cc1)c1ccccc1 (single isomer, unassigned) [82 Isomer 1] | 1610 nM | > 30000 nM | – |
| Cn1cc(-c2ccc3c(C(=O)C(NCCc4ccc(F)cc4F)c4ccccc4)c[nH]c3c2)cn1 (single isomer, unassigned) [85 Isomer 2] | – | 826 nM | 92.6 nM |
| Cc1ccc(-c2ccc3c(C(=O)C(NCCc4ccc(Cl)cc4)c4ccccc4)c[nH]c3c2)cn1 (single isomer, unassigned) [88 Isomer 2] | – | 603 nM | 379 nM |
| O=C(c1c[nH]c2cc(-c3cccnc3)ccc12)C(NCCc1ccc(Cl)cc1)c1ccccc1 (single isomer, unassigned) [90 Isomer 2] | – | 591 nM | 80 nM |
| CC(Cc1ccc(Cl)cc1Cl)NC(C(=O)c1c[nH]c2cc(-c3cnn(C)c3)ccc12)c1ccccc1 (single isomer, unassigned) [97 Isomer 1] | 135 nM | 437 nM | – |
| CC(Cc1ccc(Cl)cc1Cl)NC(C(=O)c1c[nH]c2cc(-c3cnn(C)c3)ccc12)c1ccccc1 (single isomer, unassigned) [97 Isomer 2] | 780 nM | 6260 nM | – |
| CC(Cc1ccc(Cl)cc1Cl)NC(C(=O)c1c[nH]c2cc(-c3cnn(C)c3)ccc12)c1ccccc1 (single isomer, unassigned) [97 Isomer 3] | > 10000 nM | > 30000 nM | – |
| CC(Cc1ccc(Cl)cc1Cl)NC(C(=O)c1c[nH]c2cc(-c3cnn(C)c3)ccc12)c1ccccc1 (single isomer, unassigned) [97 Isomer 4] | > 10000 nM | 6710 nM | – |
| O=C(c1c[nH]c2cc(-c3ccccn3)ccc12)C(NCCc1ccc(Cl)cc1)c1ccccc1 (single isomer, unassigned) [108 Isomer 1] | – | 1600 nM | 928 nM |
| NS(=O)(=O)c1ccc(CCNC(C(=O)c2c[nH]c3cc(-n4ccnc4)ccc23)c2ccccc2)cc1 (single isomer, unassigned) [119 Isomer 2] | – | 580 nM | 232 nM |
| N#Cc1ccc(CCNC(C(=O)c2c[nH]c3cc(-n4ccnc4)ccc23)c2ccccc2)cc1 (single isomer, unassigned) [120 Isomer 1] | 193 nM | 987 nM | – |
| CN1CCN(c2ccc3c(C(=O)C(NCCc4ccc(S(N)(=O)=O)cc4)c4ccccc4)c[nH]c3c2)CC1 (single isomer, unassigned) [124 Isomer 2] | – | 566 nM | 429 nM |

Molecules with a lower IC50 [2], results first:

| EC50 [1] | IC50 [2] | EC50 ([1]; Homo sapiens, HCT-116, 2 h) | SMILES |
| --- | --- | --- | --- |
| – | 422 nM | 71.7 nM | CC(=O)N1CCC(c2ccc3c(C(=O)C(NCCc4ccc(Cl)cc4)c4ccccc4)c[nH]c3c2)CC1 (single isomer, unassigned) [65 Isomer 2] |
| – | 413 nM | 148 nM | Cn1cc(-c2ccc3c(C(=O)C(NCCc4ccc(S(N)(=O)=O)cc4)c4ccccc4)c[nH]c3c2)nn1 (single isomer, unassigned) [116 Isomer 2] |
| – | 389 nM | 530 nM | Cn1cnc(-c2ccc3c(C(=O)C(NCCc4ccc(S(N)(=O)=O)cc4)c4ccccc4)c[nH]c3c2)c1 (single isomer, unassigned) [115 Isomer 2] |
| – | 332 nM | 116 nM | CCn1cc(-c2ccc3c(C(=O)C(NCCc4ccc(Cl)cc4)c4ccccc4)c[nH]c3c2)cn1 (single isomer, unassigned) [86 Isomer 2] |
| – | 281 nM | 43.3 nM | Cn1cc(-c2ccc3c(C(=O)C(NCCc4ccc(S(N)(=O)=O)cc4)c4ccccc4)c[nH]c3c2)cn1 (single isomer, unassigned) [66 Isomer 2] |
| – | 258 nM | 308 nM | Cc1ncc(-c2ccc3c(C(=O)C(NCCc4ccc(Cl)cc4)c4ccccc4)c[nH]c3c2)[nH]1 (single isomer, unassigned) [110 Isomer 2] |
| – | 247 nM | 74.7 nM | Cn1cc(-c2ccc3c(C(=O)C(NCCc4ccc(Cl)cc4)c4ccccc4)c[nH]c3c2)cn1 (single isomer, unassigned) [83 Isomer 2] |
| 139 nM | 204 nM | – | CC(CNC(C(=O)c1c[nH]c2ccccc12)c1ccccc1)c1ccc(Cl)cc1 (single isomer, unassigned) [26 Isomer 4] |
| – | 201 nM | 477 nM | N#Cc1ccc(CCNC(C(=O)c2c[nH]c3ccccc23)c2ccccc2)cc1 (single isomer, unassigned) [58 Isomer 2] |
| – | 195 nM | 267 nM | Cc1cnc(-c2ccc3c(C(=O)C(NCCc4ccc(Cl)cc4)c4ccccc4)c[nH]c3c2)[nH]1 (single isomer, unassigned) [109 Isomer 2] |
| 73.1 nM | 172 nM | – | N#Cc1ccc(CCNC(C(=O)c2c[nH]c3cc(-n4ccnc4)ccc23)c2ccccc2)cc1 (single isomer, unassigned) [120 Isomer 2] |
| – | 164 nM | 109 nM | CC(Cc1ccc(Cl)cc1)NC(C(=O)c1c[nH]c2cc(-c3cnn(C)c3)ccc12)c1ccccc1 (single isomer, unassigned) [92 Isomer 3] |
| – | 136 nM | 42.6 nM | O=C(c1c[nH]c2cc(-c3cccnn3)ccc12)C(NCCc1ccc(Cl)cc1)c1ccccc1 (single isomer, unassigned) [112 Isomer 2] |
| – | 118 nM | 68.5 nM | Cn1cc(-c2ccc3c(C(=O)C(NCCc4ccc(C#N)cc4)c4ccccc4)c[nH]c3c2F)cn1 (single isomer, unassigned) [103 Isomer 2] |
| – | 82 nM | 122 nM | CN1CCN(c2ccc3c(C(=O)C(NCCc4ccc(C#N)cc4)c4ccccc4)c[nH]c3n2)CC1 (single isomer, unassigned) [121 Isomer 2] |
| – | 62 nM | 26.4 nM | COCCn1cc(-c2ccc3c(C(=O)C(NCCc4ccc(C#N)cc4)c4ccccc4)c[nH]c3c2)cn1 (single isomer, unassigned) [96 Isomer 2] |
| – | 59.2 nM | 47.1 nM | Cn1cc(-c2ccc3c(C(=O)C(NCCc4ccc(S(N)(=O)=O)cc4)c4ccccc4)cnn3c2)cn1 (single isomer, unassigned) [101 Isomer 2] |
| – | 58.3 nM | 18.6 nM | N#Cc1ccc(CCNC(C(=O)c2c[nH]c3cc(-c4cn[nH]c4)ccc23)c2ccccc2)cc1 (single isomer, unassigned) [98 Isomer 2] |
| – | 46 nM | 61.2 nM | N#Cc1ccc(CCNC(C(=O)c2c[nH]c3cc(-c4cnn(CCO)c4)ccc23)c2ccccc2)cc1 (single isomer, unassigned) [95 Isomer 2] |
| – | 44 nM | 97.5 nM | CN1CCN(c2ccc3c(C(=O)C(NCCc4ccc(C#N)cc4)c4ccccc4)c[nH]c3c2)CC1 (single isomer, unassigned) [122 Isomer 2] |
| – | 28 nM | 34.2 nM | Cn1cnc(-c2ccc3c(C(=O)C(NCCc4ccc(C#N)cc4)c4ccccc4)c[nH]c3c2)c1 (single isomer, unassigned) [113 Isomer 2] |
| – | 19 nM | 92.6 nM | Cn1cc(-c2ccc3c(C(=O)C(NCCc4ccc(C#N)cc4)c4ccccc4)c[nH]c3c2)nn1 (single isomer, unassigned) [114 Isomer 2] |
| – | 15.6 nM | 21.6 nM | N#Cc1ccc(CCNC(C(=O)c2cnn3cc(-c4cn[nH]c4)ccc23)c2ccccc2)cc1 (single isomer, unassigned) [99 Isomer 2] |
